According to patent US20050118675A1, “Heptahelix receptor and its use as leukotriene B4 receptor” (Owman Investment Ltd., priority 1997, published 2005):
“Also recorded” adds a separate entry of the source.

Experiments:
[1] = tested on: sham-transfected COS-7 cells; assay: [3H]LTB4 binding to membranes from sham-transfected COS-7 cells; parameters: species or system African green monkey
Description: (§1) Intact plasmid DNA (10-25 μg) of the cDNA clone, Lyme21-9 (1), was transfected using the calcium phosphate precipitation method. Chinese hamster ovary cells (CHO-K1) were used to establish stable expression of the corresponding receptor, CMKRL1. The pCDneo vector was co-transfected to allow for selection with G-418)Geneticin, 500 μg/ml). Single resistant colonies were isolated to obtain homogenous cell lines, and appropriate expression of the corresponding mRNA were verified by Northern blot hybridization with cDNA probes. SV40 transformed African green monkey kidney cells (COS-7) were used for transient expression. These cells were harvested after 48 hrs for preparation and isolation of membranes. Sham-transfected cells were used as controls throughout.
The transiently transfected COS-7 cells were washed with PBS, which was replaced with 50 mM TRIS/HCl buffer (pH 7.4) containing 1 mM EGTA and 5 mM MgCl2, and scraped off. After homogenization for 20 sec in a Polytron homogenizer (Brinkmann, setting 5.5) the material was centrifuged at 20,000 rpm for 30 min at 4° C., followed by washing through homogenization in the TRIS binding buffer and subsequent recentrifugation, which was repeated twice. The pellet was finally resuspended by homogenization and stored in liquid nitrogen until used. […]

CMKRL1 [2] = biological target: T1, CMKRL1 (Homo sapiens, UniProt Q15722); assay: Intracellular calcium (Fura-2) in CHO cells stably expressing CMKRL1; type: cell-based; conditions: 1000 nM LTB4
T1 construct: A full-length cDNA (Lyme21-9) encoding a novel putative seven-transmembrane (7TM) domain receptor, named CMKRL1; expressed in transfected cells
Description: as §1, with “throughout. […]” for “throughout.”
Agonists were added in 50 μl of extracellular medium buffer and mixed thoroughly with the original contents of the well. Fluorescence images were obtained by alternate excitation at 340 and 380 nm, and the emitted light was measured at 510 nm. The software configuration allowed for storage of fluorescence information from groups of cells, which could then be analyzed separately. Intracellular calcium concentrations were calibrated using the method described by William and Fay (5) and calculated from the aforementioned radiometric images using the mathematical relationship described by Grynkiewicz et al. (6). […]

[3] = tested on: sham-transfected control cells; assay: Intracellular calcium (Fura-2) in sham-transfected CHO control cells; type: cell-based, Chinese hamster; conditions: any dose level, shown for 1000 nM
Description: as §1, with “These cells were harvested after 48 hrs for preparation and isolation of membranes. Sham-transfected cells were used as controls throughout.” left out
Transfected cells were seeded into 96-well plates (Corning-Costar) by dissociating confluent cultures using PBS containing 2 mM EDTA, diluting the resulting suspension 20×, and adding 50 μl per well. […] After 3 washes in extracellular medium buffer (135 mM NaCl, 4.6 mM KCl, 1.2 MM MgCl2, 1.5 mM CaCl2, 11 mM glucose, 11 mM Hepes, pH 7.4), the plates were mounted on the stage of a Nikon inverted fluorescence microscope attached to an SIT-camera and an image analysis system (Photon Technology International). […]
Agonists were added in 50 μl of extracellular medium buffer and mixed thoroughly with the original contents of the well. Fluorescence images were obtained by alternate excitation at 340 and 380 nm, and the emitted light was measured at 510 nm. […]

CMKRL1 [4] = biological target: T1, CMKRL1; assay: [3H]LTB4 saturation binding to membranes from COS-7 cells transiently transfected with Lyme21-9 cDNA; conditions: for Bmax: Scatchard analysis, COS-7 membranes, 4° C.; for binding sites identified: saturation binding, linear Scatchard plot
Description: as §1
The transiently transfected COS-7 cells were washed with PBS, which was replaced with 50 mM TRIS/HCl buffer (pH 7.4) containing 1 mM EGTA and 5 mM MgCl2, and scraped off. After homogenization for 20 sec in a Polytron homogenizer (Brinkmann, setting 5.5) the material was centrifuged at 20,000 rpm for 30 min at 4° C., followed by washing through homogenization in the TRIS binding buffer and subsequent recentrifugation, which was repeated twice. The pellet was finally resuspended by homogenization and stored in liquid nitrogen until used. For the binding studies, membrane material corresponding to 30 μg protein ([…]) was blended with ice-cold binding buffer (0.02 M Hepes buffer containing 10 mM CaCl2 and MgCl2) to a final volume of 70 μl and added to wells in a 96-well polypropylene plate. […] Each data point is the result of the mean of triplicate wells from three separate experiments, which have in turn been averaged.

T1 sequence (Q15722 whole entry): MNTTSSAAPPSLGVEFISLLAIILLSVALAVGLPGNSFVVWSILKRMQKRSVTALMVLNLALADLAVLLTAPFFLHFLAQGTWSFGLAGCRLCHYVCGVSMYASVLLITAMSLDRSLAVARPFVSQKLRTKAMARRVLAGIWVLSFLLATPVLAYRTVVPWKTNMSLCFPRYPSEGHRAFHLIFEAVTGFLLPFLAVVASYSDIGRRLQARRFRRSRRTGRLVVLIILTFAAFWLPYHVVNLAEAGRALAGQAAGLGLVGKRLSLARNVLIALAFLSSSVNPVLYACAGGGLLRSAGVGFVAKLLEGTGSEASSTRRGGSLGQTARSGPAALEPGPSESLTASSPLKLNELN

SMILES | specific binding [1] | increase in intracellular calcium in calcium-free medium (CMKRL1 [2]) | effect on intracellular calcium in sham-transfected control cells [3] | Bmax (CMKRL1 [4]) [pmoles/mg protein] | Bmax (CMKRL1 [4]; listed as tritiated LTB4) [pmoles/mg protein] | Non-specific binding as share of the total binding (CMKRL1 [4]; binding of tritiated ligand in the presence of 1 μM non-labelled ligand) | binding sites identified (CMKRL1 [4]) | binding sites identified (CMKRL1 [4]; listed as tritiated LTB4)
CCCCC/C=C\C[C@@H](O)/C=C/C=C/C=C\[C@@H](O)CCCC(=O)O [LTB4, leukotriene B4] | No binding | no longer included any significant increase; also recorded: No response | completely without effect; also recorded: No response; also recorded: No binding or activation | – | – | – | – | –
CCCCC/C=C\C[C@@H](O)/C=C/C=C\C=C\[C@@H](O)CCCC(=O)O [[^3H]LTB4] | no specific binding | – | – | 17.0 ± 2.0 | 17.0 | less than 15% | single class of high-affinity binding sites | binds with high affinity to a single receptor population
